# Values of other authors as cited in patent US20060222695A1, “Deoxycholic acid liposome-based dermatological topical preparation” (priority 2005, published 2006).
# Tested on: cell cultures and tissue specimen
# Settings: similar to the effects of laboratory detergents
structure (smiles),measurement,value
C[C@H](CCC(=O)O)[C@H]1CC[C@H]2[C@@H]3CC[C@@H]4C[C@H](O)CC[C@]4(C)[C@H]3C[C@H](O)[C@]12C [Deoxycholic acid],effect on cells and fat tissue,"loss of cell viability, cell membrane lysis and disruption of fat architecture"
